# In patent publication US7807701B2, “Dibenzylamine compounds and pharmaceutical use thereof” (Japan Tobacco Inc., priority 2002, dated 2010):
# Where a name gives a salt, the structure may show the parent alone.
# Molecular target: T1, CETP (Homo sapiens, UniProt P11597)
# T1 construct: The donor lipoprotein obtained above was added to plasma of healthy subject; from tissue; host or cells: whole plasma of healthy subject
# T1 sequence (P11597 18-493): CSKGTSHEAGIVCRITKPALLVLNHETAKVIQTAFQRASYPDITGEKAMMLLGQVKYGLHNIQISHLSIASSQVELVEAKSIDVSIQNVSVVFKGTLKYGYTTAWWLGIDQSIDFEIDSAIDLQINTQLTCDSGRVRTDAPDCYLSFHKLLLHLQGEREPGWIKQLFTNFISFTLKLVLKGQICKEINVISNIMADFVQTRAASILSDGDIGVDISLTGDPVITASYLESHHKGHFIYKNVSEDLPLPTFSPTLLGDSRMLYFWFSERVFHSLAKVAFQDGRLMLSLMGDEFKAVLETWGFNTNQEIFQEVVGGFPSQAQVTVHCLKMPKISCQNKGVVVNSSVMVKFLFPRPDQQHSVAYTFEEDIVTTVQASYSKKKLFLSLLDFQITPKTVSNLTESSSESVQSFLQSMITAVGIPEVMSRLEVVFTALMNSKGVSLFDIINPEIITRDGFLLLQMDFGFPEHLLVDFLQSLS
# Test: Inhibitory effect in vitro on CETP activity in total plasma
# Format: biochemical
# Details: plasma of healthy subject with [3H]CE-HDL3, 37° C., 4 hr; average values
# Description: Potassium bromide (KBr) was added to plasma (40 mL) of healthy subject and the mixture was adjusted to have a specific density d=1.125 g/mL. The mixture was subjected to density gradient centrifugation (227,000×g, 4° C., 17 hr) and a fraction showing a specific density of d>1.125 g/mL (HDL3 fraction) was harvested. The obtained fraction was dialyzed against PBS solution [10 mmol/L Na2HPO4; 10 mmol/L NaH2PO4; 0.15 mol/L NaCl; […] (pH 7.4)]. Then, tritium-labeled cholesterol (37 MBq) was dissolved in 95% ethanol, gradually added to the above-mentioned HDL3 fraction with stirring and incubated at 37° C. for 18 hr. [By this operation, tritium-labeled cholesterol was esterified by the action of lecithin acyl transferase (LCAT) present on the HDL3 surface and taken up into HDL3 as tritium-labeled cholesteryl ester ([^3H]CE)]. After incubation, KBr was added, the mixture was adjusted to have a specific density d=1.21 g/mL, subjected to density gradient centrifugation (227,000×g, 4° C., 17 hr) and a fraction of specific density […] was harvested. The obtained fraction was dialyzed against the aforementioned PBS solution to give HDL3 incorporating [^3H]CE ([^3H]CE-HDL3, specific density: 1.125<d<1.21, specific activity: 10,000 dpm/μL), which was used as a donor lipoprotein.
# The donor lipoprotein obtained above was added to plasma of healthy subject to prepare a [^3H]CE-HDL3-containing plasma (1,000 dpm/μL). The compound was dissolved in dimethyl formamide. A solution of the compound or a solvent alone (2 μL) and the [^3H]CE-HDL3-containing plasma (100 μL) were added into a microtube, and this was incubated at 37° C. or 4° C. for 4 hr. After ice-cooling, TBS solution [100 μL, 20 mmol/L Tris; 0.15 mol/L NaCl (pH 7.4)] containing 1 mol/L magnesium chloride and 2% dextran sulfate was added to each microtube and the mixture was thoroughly stirred. After keeping at 4° C. for 30 min, the mixture was centrifuged (10,000×g, 4° C., 10 min), and the radioactivity in the obtained supernatant (HDL fraction) was measured with a scintillation counter. […] The concentration of the compound necessary for inhibiting the CETP activity by 50% was calculated as an IC50 value.
row,Structure (SMILES),IC50
1,"CCN(CCCCC(=O)O)c1cc2c(cc1CN(Cc1cc(C#N)cc(C(F)(F)F)c1)c1ncn(C)n1)CCCC2 [Example 77, 5-[N-(3-{[N′-(3-cyano-5-trifluoromethylbenzyl)-N′-(1-methyl-1H-[1,2,4]triazol-3-yl)amino]methyl}-5,6,7,8-tetrahydronaphthalen-2-yl)-N-ethylamino]pentanoic acid hydrochloride]",540 nM
2,"CCN(CCCCC(=O)O)c1cc2c(cc1CN(Cc1cc(C#N)cc(C(F)(F)F)c1)c1cc(C)no1)CCCC2 [Example 79, 5-[N-(3-{[N′-(3-cyano-5-trifluoromethylbenzyl)-N′-(3-methylisoxazol-5-yl)amino]methyl}-5,6,7,8-tetrahydronaphthalen-2-yl)-N-ethylamino]pentanoic acid hydrochloride]",890 nM
3,"CCN(CCCCC(=O)O)c1cc2c(cc1CN(Cc1cc(C(F)(F)F)cc(C(F)(F)F)c1)c1nnn(C)n1)CCCC2 [Example 80, 5-[N-(3-{[N′-[3,5-bis(trifluoromethyl)benzyl]-N′-(2-methyl-2H-tetrazol-5-yl)amino]methyl}-5,6,7,8-tetrahydronaphthalen-2-yl)-N-ethylamino]pentanoic acid hydrochloride]",430 nM
4,"CCN(C[C@H]1CC[C@H](C(=O)O)CC1)c1cc2c(cc1CN(Cc1cc(C(F)(F)F)cc(C(F)(F)F)c1)c1noc(C)n1)CCC2 [Example 82, trans-4-{[N-(6-{[N′-[3,5-bis(trifluoromethyl)benzyl]-N′-(5-methyl-[1,2,4]oxadiazol-3-yl)amino]methyl}indan-5-yl)-N-ethylamino]methyl}cyclohexanecarboxylic acid]",590 nM
5,"CCN(CCCCC(=O)O)c1ccc(C(F)(F)F)cc1CN(Cc1cc(C(F)(F)F)cc(C(F)(F)F)c1)c1nnn(C)n1 [Example 86, 5-[N-(2-{[N′-[3,5-bis(trifluoromethyl)benzyl]-N′-(2-methyl-2H-tetrazol-5-yl)amino]methyl}-4-trifluoromethylphenyl)-N-ethylamino]pentanoic acid hydrochloride]",941 nM

# These reach a lower IC50. Values come first.
row,IC50,Structure (SMILES)
1,400 nM,"CCN(CCCCC(=O)OC)c1cc2c(cc1CN(Cc1cc(C(F)(F)F)cc(C(F)(F)F)c1)c1ncn(C)n1)CCCC2 [Example 74, methyl 5-[N-(3-{[N′-[3,5-bis(trifluoromethyl)benzyl]-N′-(1-methyl-1H-[1,2,4]triazol-3-yl)amino]methyl}-5,6,7,8-tetrahydronaphthalen-2-yl)-N-ethylamino]pentanoate hydrochloride]"
2,410 nM,"CCN(CCCCC(=O)OC)c1cc2c(cc1CN(Cc1cc(C#N)cc(C(F)(F)F)c1)c1ncn(C)n1)CCCC2 [Example 75, methyl 5-[N-(3-{[N′-(3-cyano-5-trifluoromethylbenzyl)-N′-(1-methyl-1H-[1,2,4]triazol-3-yl)amino]methyl}-5,6,7,8-tetrahydronaphthalen-2-yl)-N-ethylamino]pentanoate hydrochloride]"
3,290 nM,"CCN(CCCCC(=O)O)c1cc2c(cc1CN(Cc1cc(C(F)(F)F)cc(C(F)(F)F)c1)c1ncn(C)n1)CCCC2 [Example 76, 5-[N-(3-{[N′-[3,5-bis(trifluoromethyl)benzyl]-N′-(1-methyl-1H-[1,2,4]triazol-3-yl)amino]methyl}-5,6,7,8-tetrahydronaphthalen-2-yl)-N-ethylamino]pentanoic acid hydrochloride]"
4,320 nM,"CCN(CCCCC(=O)O)c1cc2c(cc1CN(Cc1cc(C(F)(F)F)cc(C(F)(F)F)c1)c1cc(C)no1)CCCC2 [Example 78, 5-[N-(3-{[N′-[3,5-bis(trifluoromethyl)benzyl]-N′-(3-methylisoxazol-5-yl)amino]methyl}-5,6,7,8-tetrahydronaphthalen-2-yl)-N-ethylamino]pentanoic acid hydrochloride]"
5,330 nM,"CCN(CCCCC(=O)O)c1cc2c(cc1CN(Cc1cc(C#N)cc(C(F)(F)F)c1)c1nnn(C)n1)CCCC2 [Example 81, 5-[N-(3-{[N′-(3-cyano-5-trifluoromethylbenzyl)-N′-(2-methyl-2H-tetrazol-5-yl)amino]methyl}-5,6,7,8-tetrahydronaphthalen-2-yl)-N-ethylamino]pentanoic acid hydrochloride]"
